Assay results reported in article PMC10579241, “Impact of trifluoromethyl and sulfonyl groups on the biological activity of novel aryl-urea derivatives: synthesis, in-vitro, in-silico and SAR studies” (Scientific Reports, 2023).
In brackets after ≈: the same amount, converted by molar mass. Like-named read-outs stand apart in the source and are kept apart here. Marks after values point to notes of the source that are not given here.

Key:
Bacillus mycoides [1] = experiment: microbe, parasite or virus in culture; type: cell-based
Escherichia coli [2] = experiment: Agar well diffusion, E. coli; type: cell-based; settings: Escherichia coli, read-out: Inhibition zones diameter
Candida albicans [3] = experiment: Agar well diffusion, C. albicans; type: cell-based
Bacillus mycoides [4] = experiment: microbe, parasite or virus in culture; type: cell-based; remark: listed apart in the source
Escherichia coli [5] = experiment: MIC by serial dilution (agar wells), E. coli; type: cell-based
Candida albicans [6] = experiment: MIC by serial dilution (agar wells), C. albicans; type: cell-based
colon cancer (HCT116) = experiment: cells; type: cell-based; settings: Homo sapiens
skin cancer (A431) = experiment: cells; type: cell-based; settings: Homo sapiens, 48 h
[7] = system: hepatocellular carcinoma cell line (HePG2); experiment: cells; type: cell-based; settings: Homo sapiens, 48 h
[8] = system: osteosarcoma cell line (HOS); experiment: cells; type: cell-based; settings: Homo sapiens, 48 h
in vitro = type: cell-based; settings: human, BJ1 normal skin fibroblast cells, 100 μg/mL
[9] = system: normal skin fibroblast cell line (BJ1); experiment: cells; type: cell-based; settings: Homo sapiens, Skin fibroblast, MTT, 48 h
TP53 = experiment: qRT-PCR, TP53 in HCT116 cells; type: cell-based, human; settings: versus negative samples
Description: RNA was extracted from pancreas, prostate, lung and liver cell lines using a total RNA purification kit (Qiagen, Hilden, Germany) according to the manufacturer's instructions. An aliquot of RNA was diluted in RNase-free water to estimate RNA quantity. Aliquots were used immediately for reverse transcription (RT). cDNA synthesis was performed on extracted RNA, which was treated with DNase (Invitrogen, Germany) to remove any possible DNA contamination. The DNase-treated RNA was reverse transcribed into first-strand cDNA using the RevertAid First Strand cDNA Synthesis kit (Fermantas) according to the manufacturer's instructions. Determination of the pancreas, prostate, lung and liver cell line cDNA copy number was carried out using StepOne™ Real-Time PCR System from Applied Biosystems (Thermo Fisher Scientific, Waltham, MA USA). Gene expressions were detected by real-time PCR, which was performed using the Rotor-Gene Q system (Qiagen Company). A 25 µL reaction mixture consisted of 12.5 µL SYBR® Premix Ex TaqTM (TaKaRa, Biotech. Co. Ltd.), 0.5 µL of each primer (10 PMole) (Table 1), 1 µL cDNA (50 ng) and 10.5 µL RNase free water. The optimum amplification conditions were chosen empirically according to each tested gene. Generally, the amplification conditions include initial incubation (95.0 °C for 3 min), then 40 cycles of amplification with denaturation (95.0 °C for 15 s), annealing (55.0 °C for 30 s) and extension (72.0 °C for 30 s) steps then 71 cycles which started at 60.0 °C and then increased about 0.5 °C every 10 s up to 95.0 °C. Mean cycle threshold (Ct) values of triplicate samples are used for analysis. The Ct value indicates the fractional cycle number at which the amount of amplified target reaches a fixed threshold. Data from real-time PCR were analyzed using 2^−∆∆Ct method[38]–[40]. Data were represented as the fold change in target gene expression normalized to a House-Keeping gene (HKG) and relative to the control. β-actin was used as a HKG to normalize input RNA amount, RNA quality and reverse transcription efficiency.

FASN = experiment: qRT-PCR, FASN in HCT116 cells; type: cell-based, human; settings: versus negative samples
HCT116 [10] = experiment: DNA damage, comet assay, HCT116; type: cell-based, human
HCT116 [11] = experiment: DNA fragmentation assay, HCT116; type: cell-based, human
[12] = read-out: Minimum inhibition concentration (MIC)
[13] = 0.00488 mg/mL, 150 µL in DMSO, 15 mm agar well
[14] = 0.00975 mg/mL, 150 µL in DMSO, 15 mm agar well
[15] = 0.0195 mg/mL, 150 µL in DMSO, 15 mm agar well
[16] = 0.0391 mg/mL, 150 µL in DMSO, 15 mm agar well
[17] = 0.0781 mg/mL, 150 µL in DMSO, 15 mm agar well
[18] = 0.1563 mg/mL, 150 µL in DMSO, 15 mm agar well
[19] = 0.3125 mg/mL, 150 µL in DMSO, 15 mm agar well
[20] = 0.625 mg/mL, 150 µL in DMSO, 15 mm agar well
[21] = 1.25 mg/mL, 150 µL in DMSO, 15 mm agar well
[22] = 2.50 mg/mL, 150 µL in DMSO, 15 mm agar well
[23] = 5.00 mg/mL, 150 µL in DMSO, 15 mm agar well
[24] = 10.0 mg/mL, 150 µL in DMSO, 15 mm agar well

Cc1ccc(S(=O)(=O)NC(=O)Nc2cc(C(F)(F)F)cc(C(F)(F)F)c2)cc1 [Compound 9, N-[(3,5-bis{Trifluoromethyl}phenyl)carbamoyl]-4-methylbenzenesulfonamide]
Inhibition zones diameter (Bacillus mycoides [1]; B. mycoides, 200 μL of 10 mg/mL in DMSO in 15 mm holes, overnight 37 °C): 41 ± 0.0 mm | zone of inhibition at 10000 µg/mL (Bacillus mycoides [1]; Bacillus mycoides, read-out: Inhibition zones diameter): 41 mm | zone of inhibition at 10000 µg/mL (Escherichia coli [2]): 37 ± 0.74 mm | Inhibition zones diameter (Candida albicans [3]; C. albicans, 200 μL of 10 mg/mL in DMSO in 15 mm holes, overnight 37 °C): 41 ± 0.21 mm | zone of inhibition at 10000 µg/mL (Candida albicans [3]; Candida albicans, read-out: Inhibition zones diameter): 41 mm | zone of inhibition at 4.88 µg/mL (Bacillus mycoides [4]; read-out: Inhibition zone): 0 mm | zone of inhibition at 9.75 µg/mL (Bacillus mycoides [4]; read-out: Inhibition zone): 0 mm | zone of inhibition at 19.5 µg/mL (Bacillus mycoides [4]; read-out: Inhibition zone): 16 mm | zone of inhibition at 39.1 µg/mL (Bacillus mycoides [4]; read-out: Inhibition zone): 17 mm | zone of inhibition at 78.1 µg/mL (Bacillus mycoides [4]; read-out: Inhibition zone): 21 mm | zone of inhibition at 156.3 µg/mL (Bacillus mycoides [4]; read-out: Inhibition zone): 25 mm | zone of inhibition at 312.5 µg/mL (Bacillus mycoides [4]; read-out: Inhibition zone): 28 mm | zone of inhibition at 625 µg/mL (Bacillus mycoides [4]; read-out: Inhibition zone): 29 mm | zone of inhibition at 1250 µg/mL (Bacillus mycoides [4]; read-out: Inhibition zone): 30 mm | zone of inhibition at 2500 µg/mL (Bacillus mycoides [4]; read-out: Inhibition zone): 32 mm | zone of inhibition at 5000 µg/mL (Bacillus mycoides [4]; read-out: Inhibition zone): 33 mm | zone of inhibition at 10000 µg/mL (Bacillus mycoides [4]; read-out: Inhibition zone): 33 mm | MIC (Bacillus mycoides [4]; [12]): 19.5 µg/mL (≈ 45.7 µM) | zone of inhibition at 4.88 µg/mL (Escherichia coli [5]; [13]): 0 mm | zone of inhibition at 9.75 µg/mL (Escherichia coli [5]; [14]): 0 mm | zone of inhibition at 19.5 µg/mL (Escherichia coli [5]; [15]): 0 mm | zone of inhibition at 39.1 µg/mL (Escherichia coli [5]; [16]): 0 mm | zone of inhibition at 78.1 µg/mL (Escherichia coli [5]; [17]): 16 mm | zone of inhibition at 156.3 µg/mL (Escherichia coli [5]; [18]): 20 mm | zone of inhibition at 312.5 µg/mL (Escherichia coli [5]; [19]): 25 mm | zone of inhibition at 625 µg/mL (Escherichia coli [5]; [20]): 30 mm | zone of inhibition at 1250 µg/mL (Escherichia coli [5]; [21]): 32 mm | zone of inhibition at 2500 µg/mL (Escherichia coli [5]; [22]): 33 mm | zone of inhibition at 5000 µg/mL (Escherichia coli [5]; [23]): 34 mm | zone of inhibition at 10000 µg/mL (Escherichia coli [5]; [24]): 35 mm | MIC (Escherichia coli [5]; [12]): 78.1 µg/mL (≈ 183 µM) | zone of inhibition at 4.88 µg/mL (Candida albicans [6]; [13]): 0 mm | zone of inhibition at 9.75 µg/mL (Candida albicans [6]; [14]): 0 mm | zone of inhibition at 19.5 µg/mL (Candida albicans [6]; [15]): 0 mm | zone of inhibition at 39.1 µg/mL (Candida albicans [6]; [16]): 16 mm | zone of inhibition at 78.1 µg/mL (Candida albicans [6]; [17]): 20 mm | zone of inhibition at 156.3 µg/mL (Candida albicans [6]; [18]): 23 mm | zone of inhibition at 312.5 µg/mL (Candida albicans [6]; [19]): 25 mm | zone of inhibition at 625 µg/mL (Candida albicans [6]; [20]): 28 mm | zone of inhibition at 1250 µg/mL (Candida albicans [6]; [21]): 32 mm | zone of inhibition at 2500 µg/mL (Candida albicans [6]; [22]): 34 mm | zone of inhibition at 5000 µg/mL (Candida albicans [6]; [23]): 35 mm | zone of inhibition at 10000 µg/mL (Candida albicans [6]; [24]): 36 mm | MIC (Candida albicans [6]; [12]): 39.1 µg/mL (≈ 91.7 µM) | mortality at 100 µg/mL (colon cancer (HCT116); HCT-116, 48 h, 100 μg/mL): 100% | IC50 (colon cancer (HCT116); HCT-116, MTT, 48 h): 17.8 ± 0.35 µM | mortality at 100 µg/mL (skin cancer (A431); A-431, 100 μg/mL): 100% | IC50 (skin cancer (A431); A-431, MTT): 113.3 ± 0.68 µM | mortality at 100 µg/mL ([7]; 100 μg/mL): 100% | IC50 ([7]; MTT): 12.4 ± 0.17 µM | mortality at 100 µg/mL ([8]; 100 μg/mL): 100% | IC50 ([8]; MTT): 17.6 ± 0.24 µM | mortality at 48 h, 100 µg/mL (in vitro): 28 ± 0.61% | IC50 [9]: 52.5 ± 0.74 µM | TP53 gene expression level (TP53): suppression | FASN gene expression level (FASN): suppression | DNA damaged cells % (mean ± SEM) (HCT116 [10]): 19.75 ± 1.25^b % | Class 0 (no tail), number of cells (HCT116 [10]; of 400 cells analyzed): 321 | Class 1 (tail length < diameter of nucleus), number of cells (HCT116 [10]; of 400 cells analyzed): 37 | Class 2 (tail length between 1 and 2 × the diameter of nucleus), number of cells (HCT116 [10]; of 400 cells analyzed): 24 | Class 3 (tail length > 2 × the diameter of nucleus), number of cells (HCT116 [10]; of 400 cells analyzed): 18 | No. of cells, Comets (HCT116 [10]; of 400 cells analyzed): 79 | Change (DNA fragmentation versus untreated cells) (HCT116 [11]): 18.10 | DNA fragmentation % M ± SEM (HCT116 [11]; IC50 concentration, 24 h): 29.0 ± 0.54^a % | Inhibition (HCT116 [11]; doxorubicin = 0.00): -13.81
